Values of other authors in patent US8536169B2, “Compounds” (Glaxo Group Limited, priority 2008, dated 2013).

Tests used:
[1] = test system: neutrophils
[2] = test system: neutrophils; remark: listed apart in the source
[3] = test system: phospholipases
[4] = test system: neutrophils; settings: treatment of neutrophils; Thelen et al. 1994
[5] = test system: Class I PI3-kinases; settings: read-out: IC50 against each of the various Class I PI3-kinases

Molecule | superoxide release [1] | neutrophil migration [2] | inhibitory activity on phospholipases [3] | fMLP-induced respiratory burst response [4] | IC50 [5]
O=c1cc(N2CCOCC2)oc2c(-c3ccccc3)cccc12 [LY294002] | block | block | some inhibitory activity | – | –
wortmannin | block | block | – | prevents | 1 to 10 nM
